Test results: patent US10435399B2, “HDAC6 inhibitory heterocyclic compound” (TAKEDA PHARMACEUTICAL COMPANY LIMITED, priority 2017, dated 2019)

target: T1, HDAC6 enzyme (Homo sapiens, UniProt Q9UBN7); test: HDAC6 enzyme inhibitory activity (HDAC-Glo I/II Assay kit); assay type: biochemical; details: 10 μM; wells without enzyme = 100% inhibition; read-out: HDAC6 inhibitory rate (%) (10 μM)
T1 construct: transducing full length HDAC6 gene into Sf-9 insect cells; GST; purchased SignalChem; host or cells: Sf-9 insect cells
T1 sequence (Q9UBN7 1-1215): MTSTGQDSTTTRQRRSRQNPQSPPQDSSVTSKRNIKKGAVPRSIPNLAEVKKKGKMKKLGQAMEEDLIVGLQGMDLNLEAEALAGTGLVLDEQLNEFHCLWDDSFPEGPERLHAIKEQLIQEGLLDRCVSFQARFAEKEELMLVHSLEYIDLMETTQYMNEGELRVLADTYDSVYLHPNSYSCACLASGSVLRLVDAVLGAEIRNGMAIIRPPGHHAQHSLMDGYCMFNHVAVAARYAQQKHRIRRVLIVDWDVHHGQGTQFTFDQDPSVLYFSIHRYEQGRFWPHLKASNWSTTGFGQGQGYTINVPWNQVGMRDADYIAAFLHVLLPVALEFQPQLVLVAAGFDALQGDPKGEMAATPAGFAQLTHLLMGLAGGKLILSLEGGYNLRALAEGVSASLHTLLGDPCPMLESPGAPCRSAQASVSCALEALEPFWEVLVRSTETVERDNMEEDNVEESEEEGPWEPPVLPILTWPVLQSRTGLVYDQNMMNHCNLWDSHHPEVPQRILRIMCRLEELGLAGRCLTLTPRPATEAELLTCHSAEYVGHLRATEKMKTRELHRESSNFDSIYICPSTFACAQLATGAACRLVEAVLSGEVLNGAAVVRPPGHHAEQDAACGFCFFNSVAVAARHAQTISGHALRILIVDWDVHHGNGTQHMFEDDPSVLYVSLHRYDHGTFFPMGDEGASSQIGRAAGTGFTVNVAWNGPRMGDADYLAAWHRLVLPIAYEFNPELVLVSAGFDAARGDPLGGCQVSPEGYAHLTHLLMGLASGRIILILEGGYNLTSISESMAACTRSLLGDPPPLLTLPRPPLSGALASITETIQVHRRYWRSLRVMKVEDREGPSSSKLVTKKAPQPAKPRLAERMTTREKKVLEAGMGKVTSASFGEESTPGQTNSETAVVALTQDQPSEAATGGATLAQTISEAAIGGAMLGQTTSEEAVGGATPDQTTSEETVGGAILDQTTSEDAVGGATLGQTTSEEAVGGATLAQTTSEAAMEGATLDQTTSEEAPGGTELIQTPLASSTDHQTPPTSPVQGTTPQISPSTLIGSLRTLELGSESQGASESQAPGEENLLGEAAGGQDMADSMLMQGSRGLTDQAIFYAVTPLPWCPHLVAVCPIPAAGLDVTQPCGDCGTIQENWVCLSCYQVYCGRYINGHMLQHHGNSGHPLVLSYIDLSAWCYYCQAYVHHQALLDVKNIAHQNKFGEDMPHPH
Summary of the method: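 Inhibition is calculated as relative activity, taking luminescence in enzyme-free wells as complete inhibition. The enzyme, full-length and GST-purified after Sf-9 expression, was exposed to compound for 60 min at room temperature before a 20 min HDAC-Glo reaction.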

Going from `CC(C)(C(=O)N[C@@H]1CCCC[C@H]1N1Cc2ccc(-c3nnc(C(F)F)o3)cc2C1=O)C(F)(F)F` [Example 84, N-((1R,2R)-2-(6-(5-(difluoromethyl)-1,3,4-oxadiazol-2-yl)-1-oxo-1,3-dihydro-2H-isoindol-2-yl)cyclohexyl)-3,3,3-trifluoro-2,2-dimethylpropanamide] to `C[C@](O)(C(=O)N[C@@H]1CCCC[C@H]1N1Cc2ccc(-c3nnc(C(F)F)o3)cc2C1=O)C(F)(F)F` [Example 103, (2S)-N-((1R,2R)-2-(6-(5-(difluoromethyl)-1,3,4-oxadiazol-2-yl)-1-oxo-1,3-dihydro-2H-isoindol-2-yl)cyclohexyl)-3,3,3-trifluoro-2-hydroxy-2-methylpropanamide], the inhibition at 10 µM falls from 100% to 98%.

Going from `COC(C)(C)C(=O)N[C@@H]1CCCC[C@H]1N1Cc2ccc(-c3nnc(C(F)F)o3)cc2C1=O` [Example 85, N-((1R,2R)-2-(6-(5-(difluoromethyl)-1,3,4-oxadiazol-2-yl)-1-oxo-1,3-dihydro-2H-isoindol-2-yl)cyclohexyl)-2-methoxy-2-methylpropanamide] to `CC(C)(F)C(=O)N[C@@H]1CCCC[C@H]1N1Cc2ccc(-c3nnc(C(F)F)o3)cc2C1=O` [Example 106, N-((1R,2R)-2-(6-(5-(difluoromethyl)-1,3,4-oxadiazol-2-yl)-1-oxo-1,3-dihydro-2H-isoindol-2-yl)cyclohexyl)-2-fluoro-2-methylpropanamide], the inhibition at 10 µM falls from 101% to 99%.

Going from `N#CC1(CC(=O)N[C@@H]2CCCC[C@H]2N2Cc3ccc(-c4nnc(C(F)F)o4)cc3C2=O)CC1` [Example 86, 2-(1-cyanocyclopropyl)-N-((1R,2R)-2-(6-(5-(difluoromethyl)-1,3,4-oxadiazol-2-yl)-1-oxo-1,3-dihydro-2H-isoindol-2-yl)cyclohexyl)acetamide] to `O=C(N[C@@H]1CCCC[C@H]1N1Cc2ccc(-c3nnc(C(F)F)o3)cc2C1=O)C1COC1` [Example 91, N-((1R,2R)-2-(6-(5-(difluoromethyl)-1,3,4-oxadiazol-2-yl)-1-oxo-1,3-dihydro-2H-isoindol-2-yl)cyclohexyl)oxetane-3-carboxamide], the inhibition at 10 µM rises from 96% to 100%.

Going from `O=C1c2cc(-c3nnc(C(F)F)o3)ccc2CN1[C@@H]1CCCC[C@H]1NC(=O)C1(c2ccccc2)CC1` [Example 87, N-((1R,2R)-2-(6-(5-(difluoromethyl)-1,3,4-oxadiazol-2-yl)-1-oxo-1,3-dihydro-2H-isoindol-2-yl)cyclohexyl)-1-phenylcyclopropanecarboxamide] to `O=C1c2cc(-c3nnc(C(F)F)o3)ccc2CN1[C@@H]1CCCC[C@H]1NC(=O)C1(c2ccccc2)CCC1` [Example 89, N-((1R,2R)-2-(6-(5-(difluoromethyl)-1,3,4-oxadiazol-2-yl)-1-oxo-1,3-dihydro-2H-isoindol-2-yl)cyclohexyl)-1-phenylcyclobutanecarboxamide], the inhibition at 10 µM rises from 99% to 100%.

Compared with `CC(C)(C(=O)N[C@@H]1CCCC[C@H]1N1Cc2ccc(-c3nnc(C(F)F)o3)cc2C1=O)c1ccccc1` [Example 88, N-((1R,2R)-2-(6-(5-(difluoromethyl)-1,3,4-oxadiazol-2-yl)-1-oxo-1,3-dihydro-2H-isoindol-2-yl)cyclohexyl)-2-methyl-2-phenylpropanamide], `O=C(N[C@@H]1CCCC[C@H]1N1Cc2ccc(-c3nnc(C(F)F)o3)cc2C1=O)c1ccccc1` [Example 98, N-((1R,2R)-2-(6-(5-(difluoromethyl)-1,3,4-oxadiazol-2-yl)-1-oxo-1,3-dihydro-2H-isoindol-2-yl)cyclohexyl)benzamide] is higher in inhibition at 10 µM: 99% for the first, 101% for the second.

`O=C1c2cc(-c3nnc(C(F)F)o3)ccc2CN1[C@@H]1CCCC[C@H]1NC(=O)C1(c2ccccc2)COC1` [Example 90, N-((1R,2R)-2-(6-(5-(difluoromethyl)-1,3,4-oxadiazol-2-yl)-1-oxo-1,3-dihydro-2H-isoindol-2-yl)cyclohexyl)-3-phenyloxetane-3-carboxamide] and `O=C(N[C@@H]1CCCC[C@H]1N1Cc2ccc(-c3nnc(C(F)F)o3)cc2C1=O)c1ccccc1Cl` [Example 99, 2-chloro-N-((1R,2R)-2-(6-(5-(difluoromethyl)-1,3,4-oxadiazol-2-yl)-1-oxo-1,3-dihydro-2H-isoindol-2-yl)cyclohexyl)benzamide] are the same in inhibition at 10 µM: 100% for the first, 100% for the second.

Going from `CCC1(C(=O)N[C@@H]2CCCC[C@H]2N2Cc3ccc(-c4nnc(C(F)F)o4)cc3C2=O)COC1` [Example 92, N-((1R,2R)-2-(6-(5-(difluoromethyl)-1,3,4-oxadiazol-2-yl)-1-oxo-1,3-dihydro-2H-isoindol-2-yl)cyclohexyl)-3-ethyloxetane-3-carboxamide] to `O=C(N[C@@H]1CCCC[C@H]1N1Cc2ccc(-c3nnc(C(F)F)o3)cc2C1=O)[C@@H]1CCOC1` [Example 94], the inhibition at 10 µM falls from 101% to 100%.

Going from `O=C(N[C@@H]1CCCC[C@H]1N1Cc2ccc(-c3nnc(C(F)F)o3)cc2C1=O)[C@@H]1CCCO1` [Example 93, (2S)-N-((1R,2R)-2-(6-(5-(difluoromethyl)-1,3,4-oxadiazol-2-yl)-1-oxo-1,3-dihydro-2H-isoindol-2-yl)cyclohexyl)tetrahydrofuran-2-carboxamide] to `O=C(N[C@@H]1CCCC[C@H]1N1Cc2ccc(-c3nnc(C(F)F)o3)cc2C1=O)C1CCOCC1` [Example 95, N-((1R,2R)-2-(6-(5-(difluoromethyl)-1,3,4-oxadiazol-2-yl)-1-oxo-1,3-dihydro-2H-isoindol-2-yl)cyclohexyl)tetrahydro-2H-pyran-4-carboxamide], the inhibition at 10 µM falls from 100% to 96%.

First: Cn1cncc1C(=O)N[C@@H]1CCCC[C@H]1N1Cc2ccc(-c3nnc(C(F)F)o3)cc2C1=O [Example 96, N-((1R,2R)-2-(6-(5-(difluoromethyl)-1,3,4-oxadiazol-2-yl)-1-oxo-1,3-dihydro-2H-isoindol-2-yl)cyclohexyl)-1-methyl-1H-imidazole-5-carboxamide]
Second: Cn1cc(C(=O)N[C@@H]2CCCC[C@H]2N2Cc3ccc(-c4nnc(C(F)F)o4)cc3C2=O)cn1 [Example 97, N-((1R,2R)-2-(6-(5-(difluoromethyl)-1,3,4-oxadiazol-2-yl)-1-oxo-1,3-dihydro-2H-isoindol-2-yl)cyclohexyl)-1-methyl-1H-pyrazole-4-carboxamide]
The inhibition at 10 µM of the first is lower: 98% for the first, 100% for the second.

Going from `O=C(N[C@@H]1CCCC[C@H]1N1Cc2ccc(-c3nnc(C(F)F)o3)cc2C1=O)c1cccc(Cl)c1` [Example 100, 3-chloro-N-((1R,2R)-2-(6-(5-(difluoromethyl)-1,3,4-oxadiazol-2-yl)-1-oxo-1,3-dihydro-2H-isoindol-2-yl)cyclohexyl)benzamide] to `O=C(N[C@@H]1CCCC[C@H]1N1Cc2ccc(-c3nnc(C(F)F)o3)cc2C1=O)c1ccc(Cl)cc1` [Example 101, 4-chloro-N-((1R,2R)-2-(6-(5-(difluoromethyl)-1,3,4-oxadiazol-2-yl)-1-oxo-1,3-dihydro-2H-isoindol-2-yl)cyclohexyl)benzamide], the inhibition at 10 µM falls from 100% to 99%.

First: O=C(N[C@@H]1CCCC[C@H]1N1Cc2ccc(-c3nnc(C(F)F)o3)cc2C1=O)C1CCC(F)(F)CC1 [Example 102, N-((1R,2R)-2-(6-(5-(difluoromethyl)-1,3,4-oxadiazol-2-yl)-1-oxo-1,3-dihydro-2H-isoindol-2-yl)cyclohexyl)-4,4-difluorocyclohexanecarboxamide]
Second: C[C@@](O)(C(=O)N[C@@H]1CCCC[C@H]1N1Cc2ccc(-c3nnc(C(F)F)o3)cc2C1=O)C(F)(F)F [Example 104, (2R)-N-((1R,2R)-2-(6-(5-(difluoromethyl)-1,3,4-oxadiazol-2-yl)-1-oxo-1,3-dihydro-2H-isoindol-2-yl)cyclohexyl)-3,3,3-trifluoro-2-hydroxy-2-methylpropanamide]
The inhibition at 10 µM of the first is lower: 96% for the first, 97% for the second.

For `O=C(N[C@@H]1CCCC[C@H]1N1Cc2ccc(-c3nnc(C(F)F)o3)cc2C1=O)c1ccccn1` [Example 105, N-((1R,2R)-2-(6-(5-(difluoromethyl)-1,3,4-oxadiazol-2-yl)-1-oxo-1,3-dihydro-2H-isoindol-2-yl)cyclohexyl)pyridine-2-carboxamide], the inhibition at 10 µM was 98%.
